From patent publication US20260001844A1, “COMPOUNDS AND METHODS FOR THE TREATMENT AND PREVENTION OF HIV” (priority 2022, published 2026)
Like-named read-outs stand apart in the source and are kept apart here.

What was measured:
VSV-G pseudovirus = test: microbe, parasite or virus in culture; format: cell-based; settings: read-out: IC50 VSV-G pseudovirus
[1] = tested on: HIV-1CH58TF infected primary CD4+ T cells; test: ADCC FACS-based assay with HIV+ plasma, HIV-1CH58TF infected cells; format: cell-based, human; settings: for Susceptibility of HIV-1CH58TF infected cells to ADCC mediated by HIV+ plasma (in words): 50 μM compound, plasma 1:1000; for % ADCC (CH58): Table 1, approximate values, HIV+ plasma 1/1,000, compound 50 μM
[2] = tested on: HIV-1JRFL infected primary CD4+ T cells; test: Anti-CoRBS 17b mAb binding to infected cells (flow cytometry), HIV-1JRFL; format: cell-based, human; settings: 50 μM compound; p24+ cells
Protocol: (§1) FIG. 4. Anti-CoRBS Ab binding. Anti-CoRBS Ab-17b binding to (A) HIV-1CH58TF, (B) HIV-1JRFL (C) or HIV-1AD8 infected primary CD4+ T cells was done in the presence of 50 μM of the indicated CD4mcs or the same volume of vehicle (DMSO). The median fluorescence intensity (MFI) of 17b binding is reported for the productively-infected cell (p24+) population. Data shown are the mean±SD of at least three independent experiments. Statistical significance was evaluated using an un-paired t test (*, p<0.05; **, p<0.01; ***, p<0.001; ****, p<0.0001; ns, not significant).
The ability of the compounds to expose the co-receptor binding site (CoRBS) were tested by measuring binding of the anti-CoRBS 17b mAb to infected cells. Briefly, primary CD4+ T cells were infected with HIV-1CH58TF, HIV-1JRFL or HIV-1AD8. Two days later, infected cells were co-incubated with 50 μM (+)-BNM-III-170, (S)-MCG-IV-210, TFH-070-A6, TFH-I-116-D1, ZXC-I-090, ZXC-I-092, DL-I-101 (ZXC-I-257), and DL-I-102 (ZXC-I-258) or the same volume of DMSO, and the 17b interaction was measured by flow cytometry after intracellular anti-p24 to identify the infected cell population. […] Defined by the sensitivity to anti-body-mediated neutralization (tier-1, 2 and 3), Tier-2 viruses (HIV-1JRFL and HIV-1AD8) are representative of biologically relevant circulating HIV-1 strains which are moderately neutralized by neutralizing antibodies. Weak neutralizing antibodies, or first generation CD4mc, prevent the infection of viruses from tier-1 but not those from tier-2 or tier-3. […] A similar phenotype was observed when using HIV-1AD8 infected cells (FIG. 4C).
The anti-CoRBS 17b mAb was used alone or in combination with different com-pounds for cell-surface staining. Plasma from different HIV-infected donors were collected, heat-inactivated and conserved. Alexa Fluor 647 conjugated Goat anti-human antibodies (Invitrogen, Waltham, MA, USA) were used as secondary Abs.
Cell-surface staining was performed. Primary CD4 T cells were isolated from healthy donors and infected with HIV-1CH58TF, HIV-1JRFL or HIV-1AD8. Binding of HIV-1-infected cells by plasma (1:1000 dilution) or 17b mAb (5 μg/mL) in the presence or absence of 50 μM compounds was performed 48 h after infection. Cells were then incubated at 37° C. for 1 h followed by adding anti-human Alexa Fluor-647 (Invitrogen) secondary Abs for 20 min. Cells were then stained intracellularly for HIV-1 p24, using the Cytofix/Cytoperm Fixation/Permeabilization Kit (BD Biosciences, Mississauga, ON, Canada) and the fluorescent anti-p24 mAb (PE-conjugated anti-p24, clone KC57; Beckman Coulter/Immunotech). The percentage of infected cells (p24+ cells) was determined by gating the live cell population on the basis of the Aqua-Vivid viability dye staining. Samples were analyzed on an LSRII cytometer (BD Biosciences), and data analysis was performed using FlowJo vX.0.7 (Tree Star, Ashland, OR, USA).

[3] = tested on: HIV-1AD8 infected primary CD4+ T cells; test: Cell-surface staining with HIV+ plasma, HIV-1AD8 infected cells; settings: 50 μM compound; plasma 1:1000
[4] = tested on: HIV-1AD8 infected primary CD4+ T cells; test: ADCC FACS-based assay with HIV+ plasma, HIV-1AD8 infected cells; format: cell-based, human; settings: 50 μM compound; plasma 1:1000
[5] = tested on: HIV-1JRFL infected primary CD4+ T cells; test: ADCC FACS-based assay with HIV+ plasma, HIV-1JRFL infected cells; format: cell-based, human; settings: for % ADCC (JR-FL): Table 1, approximate values
HIV-1JRFL = test: Viral neutralization in TZM-bl cells (luciferase), HIV-1JRFL; format: cell-based
HIV-1CH58TF = test: Viral neutralization in TZM-bl cells (luciferase), HIV-1CH58TF; format: cell-based
HIV-1AD8 = test: Viral neutralization in TZM-bl cells (luciferase), HIV-1AD8; format: cell-based; settings: read-out: IC50 HIV-1AD8
[6] = tested on: HIV-1JRFL infected primary CD4+ T cells; test: Cell-surface staining with HIV+ plasma, HIV-1JRFL infected cells; format: cell-based, human; settings: 50 μM compound; plasma 1:1000
[7] = tested on: HIV-1CH58TF infected primary CD4+ T cells; test: Cell-surface staining with HIV+ plasma, HIV-1CH58TF infected cells; format: cell-based, human; settings: 50 μM compound; plasma 1:1000
[8] = tested on: HIV-1CH58TF infected primary CD4+ T cells; test: Anti-CoRBS 17b mAb binding to infected cells (flow cytometry), HIV-1CH58TF; format: cell-based, human; settings: 50 μM compound; p24+ cells
Protocol: as §1
The ability of the compounds to expose the co-receptor binding site (CoRBS) were tested by measuring binding of the anti-CoRBS 17b mAb to infected cells. […] Two days later, infected cells were co-incubated with 50 μM (+)-BNM-III-170, (S)-MCG-IV-210, TFH-070-A6, TFH-I-116-D1, ZXC-I-090, ZXC-I-092, DL-I-101 (ZXC-I-257), and DL-I-102 (ZXC-I-258) or the same volume of DMSO, and the 17b interaction was measured by flow cytometry after intracellular anti-p24 to identify the infected cell population. […]
Cell-surface staining was performed. […] The percentage of infected cells (p24+ cells) was determined by gating the live cell population on the basis of the Aqua-Vivid viability dye staining. Samples were analyzed on an LSRII cytometer (BD Biosciences), and data analysis was performed using FlowJo vX.0.7 (Tree Star, Ashland, OR, USA).

[9] = Human immunodeficiency virus 1, TZM-bl, read-out: IC50 (JR-FL)
[10] = Human immunodeficiency virus 1, TZM-bl, read-out: IC50 (CH58)
[11] = Human immunodeficiency virus 1, TZM-bl
[12] = Human immunodeficiency virus 1, TZM-bl, read-out: IC50 HIV-1JRFL
[13] = Table 2, average ± SD of at least three independent experiments, TZM-bl cells, read-out: IC50 HIV-1CH58TF

Row | Structure (SMILES) | IC50 (VSV-G pseudovirus; Pseudovirus, TZM-bl) | Susceptibility of HIV-1CH58TF infected cells to ADCC mediated by HIV+ plasma (in words) [1] | Exposure of the co-receptor binding site (17b mAb binding), HIV-1JRFL infected cells [2] | HIV+ plasma binding to HIV-1AD8 infected cells [3] | % ADCC (JR-FL) [5] | IC50 (HIV-1JRFL; [9]) | IC50 (HIV-1CH58TF; [10]) | % ADCC (CH58) [1] | IC50 (HIV-1JRFL; [12]) | also measured
1 | NCC(=O)N1CCN(C(=O)N2C[C@H](CO)C[C@H](C(=O)Nc3ccc(Cl)c(F)c3)C2)CC1 (racemic) [DL-I-101, (3S,5R)-N-(4-chloro-3-fluorophenyl)-1-(4-glycylpiperazine-1-carbonyl)-5-(hydroxymethyl)piperidine-3-carboxamide] | > 100 µM | also the case | successfully exposed the CoRBS | did | – | – | – | – | – | ADCC against HIV-1AD8 infected cells (in words) [4]: translated into ADCC
2 | O=C(O)CN1CCN(C(=O)N2C[C@H](CO)C[C@H](C(=O)Nc3ccc(Cl)c(F)c3)C2)CC1 (racemic) [DL-I-102, 2-(4-((3S,5R)-3-((4-chloro-3-fluorophenyl)carbamoyl)-5-(hydroxymethyl)piperidine-1-carbonyl)piperazin-1-yl)acetic acid] | > 100 µM | also the case | successfully exposed the CoRBS | – | – | – | – | – | – | –
3 | C[C@@H]1CN(C(=O)N2CCC[C@H](C(=O)Nc3ccc(Cl)c(F)c3)C2)C[C@H](C)N1C (stereo in doubt) [TFH-I-116-D1] | > 100 µM | also the case | successfully exposed the CoRBS | did | 3% | 20 µM | < 1 µM | 5% | – | ADCC against HIV-1JRFL infected cells compared to (S)-MCG-IV-210 (in words) ([5]; 50 μM compound, plasma 1:1000): not translated into enhanced ADCC; IC50 (HIV-1JRFL; Human immunodeficiency virus 1, TZM-bl, read-out: IC50, neutralization of HIV-1JRFL (text, unit printed M)): 43.8 µM; IC50 (HIV-1CH58TF; Human immunodeficiency virus 1, TZM-bl, read-out: IC50 HIV-1CH58TF): 0.065 ± 0.01 µM; IC50 (HIV-1AD8; [11]): 4.8 ± 1.7 µM; Recognition of HIV-1JRFL infected cells by antibodies from PLWH (HIV+ plasma) [6]: recognized infected cells; ADCC against HIV-1AD8 infected cells (in words) [4]: translated into ADCC
4 | CN1CCN(C(=O)N2C[C@H](CN)C[C@H](C(=O)Nc3ccc(Cl)c(F)c3)C2)CC1 (stereo in doubt) [ZXC-I-090] | > 100 µM | also the case | – | – | ~2% | 18 µM | ~50 µM | ~3% | – | –
5 | C[C@@H]1CN(C(=O)N2C[C@H](CN)C[C@H](C(=O)Nc3ccc(Cl)c(F)c3)C2)C[C@H](C)N1C (stereo in doubt) [ZXC-I-092] | > 100 µM | also the case | successfully exposed the CoRBS | – | ~2% | 28 µM | ~50 µM | ~3% | 54.2 ± 22.8 µM | IC50 (HIV-1CH58TF; [13]): 0.75 ± 0.12 µM
6 | CNCc1ccc2c(c1)C[C@H](CN=C(N)N)[C@H]2NC(=O)C(=O)Nc1ccc(Cl)c(F)c1.O=C(O)C(F)(F)F.O=C(O)C(F)(F)F [BNM-III-170, reference compound] | – | enhanced | – | – | – | – | – | – | – | IC50 (VSV-G pseudovirus): > 100 µM; IC50 (HIV-1JRFL; TZM-bl neutralization assay, read-out: IC50, neutralization of HIV-1JRFL): 13.5 µM; IC50 (HIV-1CH58TF; [13]): 0.033 ± 0.01 µM; IC50 (HIV-1AD8; Table 2, average ± SD of at least three independent experiments, TZM-bl cells): 3.75 ± 1.3 µM; Recognition of HIV-1CH58TF infected cells by HIV+ plasma [7]: enhanced the recognition
7 | NCCNC(=O)N1CCC[C@H](C(=O)Nc2ccc(Cl)c(F)c2)C1 [MCG-IV-210, reference compound] | > 100 µM | enhanced | – | did not promote HIV+ plasma binding | – | – | – | – | > 100 µM | Inhibition of viral infection by HIV-1JRFL (in words) (HIV-1JRFL; TZM-bl neutralization assay): unable to inhibit viral infection; Exposure of the co-receptor binding site (17b mAb binding), HIV-1CH58 infected cells [8]: exposed the CoRBS; IC50 (HIV-1AD8; [11]): > 100 µM; Recognition of HIV-1CH58TF infected cells by HIV+ plasma [7]: enhanced the recognition
8 | CN1CCN(C(=O)N2CCC[C@H](C(=O)Nc3ccc(Cl)c(F)c3)C2)CC1 [TFH-I-070-A6, (S)-4-(3-((4-chloro-3-fluorophenyl)carbamoyl)piperidine-1-carbonyl)-1-methylpiperazin-1-ium, 2,2,2-trifluoro-acetate] | > 100 µM | also the case | successfully exposed the CoRBS | did | 3% | 80 µM | 30 µM | 5% | 67.2 ± 30 µM | –
